Publication PMC2662861, “An unexpected phosphate binding site in Glyceraldehyde 3-Phosphate Dehydrogenase: Crystal structures of apo, holo and ternary complex of Cryptosporidium parvum enzyme” (BMC Structural Biology, 2009)

Target: T1, CpGAPDH (Cryptosporidium parvum glyceraldehyde 3-phosphate dehydrogenase) (Cryptosporidium parvum, UniProt Q7YYQ9)
T1 construct: gene cgd6_3790; recombinant, N-terminal hexa-histidine tag kept, expressed in E. coli; homotetramer
Experiment: X-ray crystal structure, […] Å, co-crystallized
Format: binding
Settings: holoenzyme; 2 mM NAD; pH 7.5; NAD in all four subunits

T1 sequence (Q7YYQ9 1-339): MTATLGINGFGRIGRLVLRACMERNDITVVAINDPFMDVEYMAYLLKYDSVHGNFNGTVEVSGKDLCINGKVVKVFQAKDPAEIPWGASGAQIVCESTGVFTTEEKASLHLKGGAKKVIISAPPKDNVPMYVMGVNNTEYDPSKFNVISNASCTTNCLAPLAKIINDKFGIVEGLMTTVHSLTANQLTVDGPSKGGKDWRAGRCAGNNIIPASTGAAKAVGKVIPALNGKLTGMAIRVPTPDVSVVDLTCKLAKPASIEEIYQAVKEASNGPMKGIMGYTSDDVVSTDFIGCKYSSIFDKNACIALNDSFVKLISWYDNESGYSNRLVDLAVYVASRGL

NC(=O)c1ccc[n+]([C@@H]2O[C@H](COP(=O)(O)OP(=O)(O)OC[C@H]3O[C@@H](n4cnc5c(N)ncnc54)[C@H](O)[C@@H]3O)[C@@H](O)[C@H]2O)c1 [NAD]
X-ray crystal structure, 2.0 Å, co-crystallized: The holoenzyme form of CpGAPDH contains one NAD molecule in each subunit
